pEC50: −log10 of the molar value.
Key:
solid tumors = settings: from Oltersdorf, Nature 435: 677-681, 2005; cited from earlier work
[1] = test system: SCLC and lymphoma cell lines; settings: from Oltersdorf, Nature 435: 677-681, 2005; cited from earlier work
H69AR = assay: sensitivity of SCLC cell line to ABT-737; assay type: cell-based; settings: Homo sapiens, read-out: sensitivity to ABT-737 (EC50 class)
Procedure: (§1) The following SCLC cell lines were obtained from ATCC (Manassis, Va.): NCI-H889, NCI-H1963, NCI-H1417, NCI-H146, NCI-H187, DMS53, NCI-H510, NCI-H1209, NCI-H526, NCI-H211, NCI-H345, NCI-H524, NCI-H69, NCI-H748, DMS79, NCI-H711, SHP77, NCI-446, NCI-H1048, NCI-H82, NCI-H196, SW1271, H69AR. All cells were cultured in the ATCC recommended media at 37° C. in a humidified atmosphere containing 5% CO2. Genomic DNA was isolated from the cell lines using a DNAeasy kit (Qiagen, Valencia, Calif.).
(§2) The 23 SCLC cell lines were tested for sensitivity to ABT-737 using the procedure described in Oltersdorf, T., “An inhibitor of Bcl-2 family proteins induces regression of solid tumours”, Nature, 435: 677-681, 2005, with a cell line classified as sensitive if its EC50<1 μM and as resistant if its EC50>10 μM. The sensitive cell line group consisted of NCI-H889, NCI-H1963, NCI-H1417, NCI-H146, NCI-H187, DMS 53, NCI-H510, NCI-H209, NCI-H526, NCI-H211, NCI-H345, and NCI-H524 and the resistant cell line group was comprised of NCI-H82, NCI-H196, SW1271, and H69AR.

NCI-H1963 = assay: sensitivity of SCLC cell line to ABT-737; assay type: cell-based; settings: Homo sapiens, read-out: sensitivity to ABT-737 (EC50 class)
Procedure: as §1, §2

NCI-H526 = assay: sensitivity of SCLC cell line to ABT-737; assay type: cell-based; settings: Homo sapiens, read-out: sensitivity to ABT-737 (EC50 class)
Procedure: as §1, §2

NCI-H1417 = assay: sensitivity of SCLC cell line to ABT-737; assay type: cell-based; settings: Homo sapiens, read-out: sensitivity to ABT-737 (EC50 class)
Procedure: as §1, §2

NCI-H196 = assay: sensitivity of SCLC cell line to ABT-737; assay type: cell-based; settings: Homo sapiens, read-out: sensitivity to ABT-737 (EC50 class)
Procedure: as §1, §2

NCI-H187 = assay: sensitivity of SCLC cell line to ABT-737; assay type: cell-based; settings: Homo sapiens, read-out: sensitivity to ABT-737 (EC50 class)
Procedure: as §1, §2

NCI-H889 = assay: sensitivity of SCLC cell line to ABT-737; assay type: cell-based; settings: Homo sapiens, read-out: sensitivity to ABT-737 (EC50 class)
Procedure: as §1, §2

NCI-H345 = assay: sensitivity of SCLC cell line to ABT-737; assay type: cell-based; settings: Homo sapiens, read-out: sensitivity to ABT-737 (EC50 class)
Procedure: as §1, §2

NCI-H524 = assay: sensitivity of SCLC cell line to ABT-737; assay type: cell-based; settings: Homo sapiens, read-out: sensitivity to ABT-737 (EC50 class)
Procedure: as §1, §2

NCI-H82 = assay: sensitivity of SCLC cell line to ABT-737; assay type: cell-based; settings: Homo sapiens, read-out: sensitivity to ABT-737 (EC50 class)
Procedure: as §1, §2

NCI-H211 = assay: sensitivity of SCLC cell line to ABT-737; assay type: cell-based; settings: Homo sapiens, read-out: sensitivity to ABT-737 (EC50 class)
Procedure: as §1, §2

NCI-H209 = assay: sensitivity of SCLC cell line to ABT-737; assay type: cell-based; settings: Homo sapiens, read-out: sensitivity to ABT-737 (EC50 class)
Procedure: as §1, §2

NCI-H510 = assay: sensitivity of SCLC cell line to ABT-737; assay type: cell-based; settings: Homo sapiens, read-out: sensitivity to ABT-737 (EC50 class)
Procedure: as §1, §2

SW1271 = assay: sensitivity of SCLC cell line to ABT-737; assay type: cell-based; settings: Homo sapiens, read-out: sensitivity to ABT-737 (EC50 class)
Procedure: as §1, §2

DMS 53 = assay: sensitivity of SCLC cell line to ABT-737; assay type: cell-based; settings: Homo sapiens; DMS 53 SCLC cell line; read-out: sensitivity to ABT-737 (EC50 class)
Procedure: as §1, §2

NCI-H146 = assay: sensitivity of SCLC cell line to ABT-737; assay type: cell-based; settings: Homo sapiens, read-out: sensitivity to ABT-737 (EC50 class)
Procedure: as §1, §2

pEC50 (H69AR): < 5.00
pEC50 (NCI-H1963): > 6.00
pEC50 (NCI-H526): > 6.00
pEC50 (NCI-H1417): > 6.00
pEC50 (NCI-H196): < 5.00
pEC50 (NCI-H187): > 6.00
pEC50 (NCI-H889): > 6.00
pEC50 (NCI-H345): > 6.00
pEC50 (NCI-H524): > 6.00
pEC50 (NCI-H82): < 5.00
pEC50 (NCI-H211): > 6.00
pEC50 (NCI-H209): > 6.00
pEC50 (NCI-H510): > 6.00
pEC50 (SW1271): < 5.00
pEC50 (DMS 53): > 6.00
pEC50 (NCI-H146): > 6.00
Compound: CN(C)CC[C@H](CSc1ccccc1)Nc1ccc(S(=O)(=O)NC(=O)c2ccc(N3CCN(Cc4ccccc4-c4ccc(Cl)cc4)CC3)cc2)cc1[N+](=O)[O-] [ABT-737, N-(4-(4-((4′-chloro(1,1′-biphenyl)-2-yl)methyl)piperazin-1-yl)benzoyl)-4-(((1R)-3-(dimethylamino)-1-((phenylsulfanyl)methyl)propyl)amino)-3-nitrobenzenesulfonamide]
effect on solid tumors (solid tumors): induce regression of solid tumors
potency against a diverse panel of human cancer cell lines [1]: selective potency against SCLC and lymphoma cell lines

Reference: US20080193943A1, “Companion diagnostic assays for cancer therapy” (ABBOTT LABORATORIES, priority 2006, published 2008)
